Patent publication US11512111B2, “Yeats inhibitors and methods of use thereof” (The University of Hong Kong, priority 2017, dated 2022)

Legend:
c-Myc expression = test: JQ1-induced decrease of c-Myc expression, qPCR; assay type: cell-based; details: MOLM13 (FLAG-ENL), 50 μM, 24 hours then another 24 hours
Source text: (§1) FIG. 49A is a graph showing the effect of treatment of MOLM13 cells with compound 39 (XL-13m) on the sensitivity of JQ1-induced decrease in c-Myc expression. Expression of c-Myc was quantified by qPCR. P value by student's t-test. Mean±s.d., three biological replicates. FIG. 49B is a graph showing the effect of treatment of MOLM13 cells with compound 39 (XL-13m) on enrichment of ENL on indicated genes. […] P value by student's t-test. Mean±s.d., triplicate PCR analysis.
(§2) MOLM13 (FLAG-ENL) cells were cultured with or without 50 μM compound XL-13m. Every 2-3 days, live cells were counted by trypan blue exclusion assay and re-plated. […] MOLM13 (FLAG-ENL) cells were cultured with or without 50 μM compound XL-13m for 24 hours, and the cells were treated with 50 μM for another 24 hours. […] Expression of c-Myc was quantified by qPCR.

ENL [1] = target: T1, ENL (Homo sapiens, UniProt Q03111); test: ChIP-qPCR of ENL enrichment on genes in MOLM13 (FLAG-ENL) cells; assay type: cell-based; details: 50 μM, 72 hours
T1 construct: expressed in transfected cells; host or cells: MOLM-13 (FLAG-ENL) cells
T1 sequence (Q03111 1-559): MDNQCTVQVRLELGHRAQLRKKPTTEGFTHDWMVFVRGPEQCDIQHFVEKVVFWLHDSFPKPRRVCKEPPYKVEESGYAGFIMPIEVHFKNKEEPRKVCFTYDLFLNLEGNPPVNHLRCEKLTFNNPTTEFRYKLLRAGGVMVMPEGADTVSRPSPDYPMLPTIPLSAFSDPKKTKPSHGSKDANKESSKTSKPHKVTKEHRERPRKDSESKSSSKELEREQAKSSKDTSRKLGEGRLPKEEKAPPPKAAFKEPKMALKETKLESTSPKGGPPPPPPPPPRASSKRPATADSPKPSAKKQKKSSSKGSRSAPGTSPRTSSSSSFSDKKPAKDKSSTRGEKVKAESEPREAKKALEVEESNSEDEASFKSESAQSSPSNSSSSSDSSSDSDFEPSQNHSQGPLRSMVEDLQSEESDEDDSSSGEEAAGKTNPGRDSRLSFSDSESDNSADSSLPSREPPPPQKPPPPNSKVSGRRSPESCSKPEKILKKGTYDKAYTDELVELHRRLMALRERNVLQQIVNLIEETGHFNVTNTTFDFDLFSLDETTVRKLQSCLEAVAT
Source text: as §1
MOLM13 (FLAG-ENL) cells were cultured with or without 50 μM compound XL-13m for 72 hours. […] MOLM13 (FLAG-ENL) cells were incubated with or without 50 μM compound for 16 hours and then were collected for cellular thermal shift assay (CETSA) as previously reported. Anti-FLAG antibody was used to detect ENL proteins and γ-actin blotting served as negative control.

AF9 YEATS domain = target: T2, AF9 YEATS domain (Homo sapiens, UniProt P42568); test: Photo-cross-linking-based competition assay (photoaffinity probe, click chemistry, in-gel fluorescence); assay type: binding; details: ratio of IC50 values
T2 construct: His-AF9 (1-138); His (N); made in house; host or cells: E. coli Rosetta
T2 sequence (P42568 1-138): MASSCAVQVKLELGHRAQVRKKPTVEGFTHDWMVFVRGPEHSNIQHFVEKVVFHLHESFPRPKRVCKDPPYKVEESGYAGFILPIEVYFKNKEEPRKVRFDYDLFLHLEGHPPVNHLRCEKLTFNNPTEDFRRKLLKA
Description: Mobile phase used were water with 0.1% trifluoroacetic acid (buffer A) and 90% acetonitrile in water with 0.1% trifluoroacetic acid (buffer B). The purity (>95%) and identity of peptides were confirmed by LC-MS. The inhibitory activities of the inhibitors were determined by a photo-cross-linking-based competition assay. […] The reactions were incubated for 1 h at r.t . . . . The reactions were quenched by adding 5 volumes of ice-cold acetone and placed at −20° C. overnight to precipitate proteins. After protein precipitation, samples were centrifuged at 6000×g for 5 min at 4° C. The supernatant was discarded and the pellet was washed with ice-cooled methanol twice and air-dried for 10 min. […] Samples were then resolved by SDS-PAGE. The labeled proteins were visualized by scanning the gel on a Typhoon 9410 variable mode imager (excitation 532 nm, emission filter 580 nm). A photo-cross-linking based method was used in this study to estimate inhibitory activity (FIG. 28). This method requires the use of a photoaffinity probe. The probe (probe 1 (SEQ ID NO:48), see below) is derived from a crotonylated peptide, ligand of the protein, carrying a photo-cross-linker and a terminal alkyne as bioorthogonal. The YEATS domain is incubated and bound to the probe through Kcr-dependent recognition. Upon UV-irradiation, the photo-cross-linker is activated and rapidly cross-linked to the protein, converting the non-covalent protein-probe interaction into a covalent linkage. The probe-labeled protein is subsequently conjugated to an azide-functionalized fluorescence dye (for example, rhodamine-N3, Rho-N3) via Cu(I)-catalyzed azide-alkyne cycloaddition (CuAAC, or “click” chemistry). After SDS-PAGE, the protein can be visualized by in-gel fluorescence scanning. If photo-cross-linking of the YEATS domain with photoaffinity probe is performed in the presence of an inhibitor, which occupies the Kcr binding pocket of the YEATS domain and thus inhibits the protein-probe interaction, the percentage of the YEATS domain in the sample that is labeled by the probe will be reduced. The in-gel fluorescence intensity detected will also be decreased. By varying the concentration of inhibitor added in the sample and quantifying the resulting fluorescence intensities, a competition curve of the inhibitor toward the protein-probe interaction will be obtained, which can be used to estimate the IC50 value. Due to the covalent nature of photo-cross-linking, weak protein-protein interactions can be captured and eventually visualized. The protein concentration used in the assay can be as low as several nanograms per microliter, while the fluorescence signal can still be robustly detected and quantified.

ENL YEATS domain = target: T3, ENL YEATS domain (Homo sapiens, UniProt Q03111); test: Photo-cross-linking-based competition assay; assay type: binding; details: competition with photoaffinity probe, in-gel fluorescence
T3 construct: His-SUMO-ENL (1-138); His (N); SUMO (N); made in house; host or cells: E. coli Rosetta
T3 sequence (Q03111 1-138): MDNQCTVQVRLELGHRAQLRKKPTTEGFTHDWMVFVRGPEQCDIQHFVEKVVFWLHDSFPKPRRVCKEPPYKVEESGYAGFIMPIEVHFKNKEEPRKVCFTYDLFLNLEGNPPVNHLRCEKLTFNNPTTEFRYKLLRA

MOLM13 (FLAG-ENL) cells = test: Cell proliferation, trypan blue exclusion count; assay type: cell-based; details: 50 μM, live cells counted every 2-3 days
Description: as §2

ENL [2] = target: T1, ENL; test: Cellular thermal shift assay (CETSA) in MOLM-13 (FLAG-ENL) cells; assay type: cell-based; details: MOLM13 (FLAG-ENL), 50 μM, 16 hours, anti-FLAG
Description: We next applied the cellular thermal shift assay (CETSA) to examine if XL-13m was cell permeable and could target ENL in living cells. MOLM-13 (FLAG-ENL) were treated with XL-13m for […] and then heated at different temperature to denature and precipitate proteins. […] Soluble proteins were extracted by freeze-thaw cycle and subjected to western blotting analysis.
MOLM13 (FLAG-ENL) cells were incubated with or without 50 μM compound for 16 hours and then were collected for cellular thermal shift assay (CETSA) as previously reported. Anti-FLAG antibody was used to detect ENL proteins and γ-actin blotting served as negative control.

CC(=O)N[C@@H](C)C(=O)N[C@@H](CCCNC(=N)N)C(=O)N[C@@H](CCCCNC(=O)c1cnco1)C(N)=O [Compound 39]
sensitivity of JQ1-induced decrease of c-Myc expression (c-Myc expression): increased the sensitivity | enrichment of ENL on indicated genes (ENL [1]): decrease of the enrichment of ENL | activity on AF9 weaker than on ENL (AF9 YEATS domain): 4.5 fold | IC50 (ENL YEATS domain): 560 nM | effect on cell proliferation (MOLM13 (FLAG-ENL) cells): affected cell proliferation | thermal shift: targeting of ENL protein in living cells (ENL [2]): revealed the target of ENL protein
